US20170275270A1, “BENZYL SUBSTITUTED INDAZOLES” (Bayer Pharma Aktiengesellschaft, priority 2014, published 2017)
Counter-ions that a name gives are not always drawn. Like-named read-outs stand apart in the source and are kept apart here.

Experiments:
[1] = target: T1, catalytic domain of human Bub1 (amino acids 704-1085) (Homo sapiens, UniProt O43683); test: Bub1 kinase assay (TR-FRET); assay type: biochemical
T1 construct: catalytic domain of human Bub1 (amino acids 704-1085); His6 (N); made in house; host or cells: Hi5 insect cells
T1 sequence (O43683 704-1085): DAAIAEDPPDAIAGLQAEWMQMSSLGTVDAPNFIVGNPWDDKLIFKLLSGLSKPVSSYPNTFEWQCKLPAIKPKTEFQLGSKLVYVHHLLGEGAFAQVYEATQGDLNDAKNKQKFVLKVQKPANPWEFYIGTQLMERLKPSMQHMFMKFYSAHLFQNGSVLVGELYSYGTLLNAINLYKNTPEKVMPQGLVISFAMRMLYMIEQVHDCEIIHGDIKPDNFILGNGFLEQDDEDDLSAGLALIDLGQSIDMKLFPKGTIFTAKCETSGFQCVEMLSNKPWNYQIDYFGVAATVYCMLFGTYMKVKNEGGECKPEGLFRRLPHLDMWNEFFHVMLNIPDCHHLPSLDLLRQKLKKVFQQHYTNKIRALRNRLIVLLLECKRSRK
Method in brief: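 TR-FRET read-out (Eu-anti-mouse IgG/anti-phosphoserine antibody to streptavidin-XL665 on biotinylated peptide) after EDTA stop and 1 h complex formation at 22° C. Kinase reaction ran 60 min at 22° C with 1:3.4 serial dilutions from 2 mM DMSO stocks. IC50 from 4-parameter logistic fit of normalized inhibition.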

[2] = tested on: HeLa human cervical tumor cells; test: Proliferation assay (HeLa+Paclitaxel); conditions: read-out: Biological Assay 3: HeLa + Paclitaxel IC50, 3 nM paclitaxel, crystal violet;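 further: compounds at 0.001-10 µM added 4 h after paclitaxel, 92 h exposure, absorbance normalized to zero-point plate (0%) and untreated cells (100%), IC50 from 4-parameter fit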
Protocol: Proliferation Assay (HeLa+Paclitaxel):
Cultivated HeLa human cervical tumor cells (DSMZ ACC-57) were plated at a density of 3000 cells/well in a 96-well multititer plate in 200 μL of growth medium supplemented 10% fetal calf serum. After 24 hours, the cells of one plate (zero-point plate) were stained with crystal violet (see below). The medium of the other plates was supplemented with 3 nM of paclitaxel (Sigma-Aldrich) and the cells were incubated at 37° C. After 4 hours the test substances were added in various concentrations (0 μM, as well as in the range of 0.001-10 μM; the final concentration of the solvent dimethyl sulfoxide was adjusted to 0.1%) using a Hewlett-Packard HP D300 Digital Dispenser. The cells were incubated for another 92 hours at 37° C. in the presence of test substances. Cell proliferation was determined by staining the cells with crystal violet: the cells were fixed by adding 20 μL/measuring point of an 11% glutaric aldehyde solution for 15 minutes at room temperature. After three washing cycles of the fixed cells with water, the plates were dried at room temperature. The cells were stained by adding 100 μL/measuring point of a 0.1% crystal violet solution (pH 3.0). After three washing cycles of the stained cells with water, the plates were dried at room temperature. The dye was dissolved by adding 100 μL/measuring point of a 10% acetic acid solution. […] The change of cell number, in percent, was calculated by normalization of the measured values to the absorbtion values of the zero-point plate (=0%) and the absorbtion of the untreated (0 μm) cells (=100%). The IC50 values were determined by means of a 4 parameter fit.

HeLa = test: Proliferation assay (HeLa cell line); conditions: Homo sapiens, 96 h, read-out: Biological Assay 2: Proliferation assay (HeLa cell line) median IC50;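 further: crystal violet staining of cell number, scaled between a plate stained before dosing (0%) and cells left untreated (100%), compounds tested at 0.001-10 µM, IC50 via 4-parameter fit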
Protocol: Cultivated tumor cells (cells were ordered from ATCC, except HeLa-MaTu and HeLa-MaTu-ADR, which were ordered from EPO-GmbH, Berlin) were plated at a density of 1000 to 5000 cells/well, depending on the growth rate of the respective cell line, in a 96-well multititer plate in 200 μL of their respective growth medium supplemented 10% fetal calf serum. After 24 hours, the cells of one plate (zero-point plate) were stained with crystal violet (see below), while the medium of the other plates was replaced by fresh culture medium (200 μL), to which the test substances were added in various concentrations (0 μM, as well as in the range of 0.001-10 μM; the final concentration of the solvent dimethyl sulfoxide was 0.5%). The cells were incubated for 4 days in the presence of test substances. Cell proliferation was determined by staining the cells with crystal violet: the cells were fixed by adding 20 μL measuring point of an 11% glutaric aldehyde solution for 15 minutes at room temperature. After three washing cycles of the fixed cells with water, the plates were dried at room temperature. The cells were stained by adding 100 μL/measuring point of a 0.1% crystal violet solution (pH 3.0). After three washing cycles of the stained cells with water, the plates were dried at room temperature. The dye was dissolved by adding 100 μl/measuring point of a 10% acetic acid solution. […] The change of cell number, in percent, was calculated by normalization of the measured values to the absorbtion values of the zero-point plate (=0%) and the absorbtion of the untreated (0 μm) cells (=100%). The IC50 values were determined by means of a 4 parameter fit.

[3] = Biological Assay 1: Bub1 kinase assay median IC50, 10 μM ATP
[4] = 10 μM ATP, read-out: Biological Assay 1: Bub1 kinase assay median IC50

SMILES	IC50 [1, 3] [nM]	further results
CCOc1cc(F)c(Cn2nc(-c3ncc(OCC[S+](C)[O-])c(Nc4ccncc4)n3)c3ccccc32)c(F)c1 (stereo not drawn) [Example 3-2-1, 2-[1-(4-ethoxy-2,6-difluorobenzyl)-1H-indazol-3-yl]-5-[2-(methylsulfinyl)ethoxy]-N-(pyridin-4-yl)pyrimidin-4-amine, reference compound]		IC50 [2]: 410 nM; IC50 (HeLa): 4500 nM
CCOc1cc(F)c(Cn2nc(-c3ncc(OCCN)c(Nc4ccncc4)n3)c3ccccc32)c(F)c1 [Example 3-4-1, 5-(2-aminoethoxy)-2-[1-(4-ethoxy-2,6-difluorobenzyl)-1H-indazol-3-yl]-N-(pyridin-4-yl)pyrimidin-4-amine, reference compound]		IC50 [1, 4]: 3.4 nM; IC50 (HeLa): 1400 nM
CCOc1cc(F)c(Cn2nc(-c3nc4c(c(Nc5ccnc(S(C)(=O)=O)c5)n3)CCC4)c3ccccc32)c(F)c1 [Example 2-19-6, 2-[1-(4-ethoxy-2,6-difluorobenzyl)-1H-indazol-3-yl]-N-[2-(methylsulfonyl)pyridin-4-yl]-6,7-dihydro-5H-cyclopenta[d]pyrimidin-4-amine]		IC50 [2]: 480 nM; IC50 (HeLa): > 10000 nM
CCOc1cc(F)c(Cn2nc(-c3ncc(CCNCC(F)(F)F)c(Nc4ccnc(C)n4)n3)c3ccccc32)c(F)c1 [Example 2-20-13, 2-[1-(4-ethoxy-2,6-difluorobenzyl)-1H-indazol-3-yl]-N-(2-methylpyrimidin-4-yl)-5-{2-[(2,2,2-trifluoroethyl)amino]ethyl}pyrimidin-4-amine]	560	
CCOc1cc(F)c(Cn2nc(-c3nc4c(c(Nc5ccnc(C)c5)n3)CS(=O)(=O)C4)c3ccccc32)c(F)c1 [Example 2-19-5, 2-[1-(4-ethoxy-2,6-difluorobenzyl)-1H-indazol-3-yl]-N-(2-methylpyridin-4-yl)-5,7-dihydrothieno[3,4-d]pyrimidin-4-amine 6,6-dioxide]	140	
CCOc1cc(F)c(Cn2nc(-c3nc4c(c(Nc5ccncc5C)n3)COC4)c3ccccc32)c(F)c1 [Example 2-19-18, 2-[1-(4-ethoxy-2,6-difluorobenzyl)-1H-indazol-3-yl]-N-(3-methylpyridin-4-yl)-5,7-dihydrofuro[3,4-d]pyrimidin-4-amine]	84	
CCOc1cc(F)c(Cn2nc(-c3nc(Nc4ccnc(C)n4)cc(-c4sc(C)nc4C)n3)c3ccccc32)c(F)c1 [Example 2-12-84, 6-(2,4-dimethyl-1,3-thiazol-5-yl)-2-[1-(4-ethoxy-2,6-difluorobenzyl)-1H-indazol-3-yl]-N-(2-methylpyrimidin-4-yl)pyrimidin-4-amine]	2300	
CCOc1cc(F)c(Cn2nc(-c3nc(Nc4ccnc(C)n4)cc(C4CCOCC4)n3)c3ccccc32)c(F)c1 [Example 2-12-89, 2-[1-(4-ethoxy-2,6-difluorobenzyl)-1H-indazol-3-yl]-N-(2-methylpyrimidin-4-yl)-6-(tetrahydro-2H-pyran-4-yl)pyrimidin-4-amine]	1100	
Cc1nccc(Nc2cc(C(C)C)nc(-c3nn(Cc4c(F)cc(OCCO)cc4F)c4ccccc34)n2)n1 [Example 2-6-28, 2-{3,5-difluoro-4-[(3-{4-isopropyl-6-[(2-methylpyrimidin-4-yl)amino]pyrimidin-2-yl}-1H-indazol-1-yl)methyl]phenoxy}ethanol]	510	
COCCOc1cc(F)c(Cn2nc(-c3nc(C)cc(Nc4ccncc4OC)n3)c3ccccc32)c(F)c1 [Example 2-12-77, 2-{1-[2,6-difluoro-4-(2-methoxyethoxy)benzyl]-1H-indazol-3-yl}-N-(3-methoxypyridin-4-yl)-6-methylpyrimidin-4-amine]		IC50 [1, 4]: 6.7 nM
CCOc1cc(F)c(Cn2nc(-c3ncc(CC4CNC4)c(Nc4ccnc(C)n4)n3)c3ccccc32)c(F)c1 [Example 2-9-20, 5-(azetidin-3-ylmethyl)-2-[1-(4-ethoxy-2,6-difluorobenzyl)-1H-indazol-3-yl]-N-(2-methylpyrimidin-4-yl)pyrimidin-4-amine, salt with hydrochloric acid]		IC50 [1, 4]: 49 nM

The remaining molecules from weak to strong by IC50 [1, 3], led by results:

IC50 [1, 3] [nM]	SMILES	further results
81	COCCOc1cc(F)c(Cn2nc(-c3nc4c(c(Nc5ccnc(C)n5)n3)CCC(C)(C)C4)c3ccccc32)c(F)c1 [Example 2-15-9, 2-{1-[2,6-difluoro-4-(2-methoxyethoxy)benzyl]-1H-indazol-3-yl}-7,7-dimethyl-N-(2-methylpyrimidin-4-yl)-5,6,7,8-tetrahydroquinazolin-4-amine]	
75	COCCOc1cc(F)c(Cn2nc(-c3nc(C)cc(Nc4ccnc(C)n4)n3)c3ccccc32)c(F)c1 [Example 2-12-71, 2-{1-[2,6-difluoro-4-(2-methoxyethoxy)benzyl]-1H-indazol-3-yl}-6-methyl-N-(2-methylpyrimidin-4-yl)pyrimidin-4-amine]	
59	COCCOc1cc(F)c(Cn2nc(-c3nc4c(c(Nc5cc(C)ncc5C)n3)CCC(C)(C)C4)c3ccccc32)c(F)c1 [Example 2-15-13, 2-{1-[2,6-difluoro-4-(2-methoxyethoxy)benzyl]-1H-indazol-3-yl}-N-(2,5-dimethylpyridin-4-yl)-7,7-dimethyl-5,6,7,8-tetrahydroquinazolin-4-amine]	
44	COCCOc1cc(F)c(Cn2nc(-c3nc4c(c(Nc5ccnc(C)n5)n3)CCC4)c3ccccc32)c(F)c1 [Example 2-12-55, 2-{1-[2,6-difluoro-4-(2-methoxyethoxy)benzyl]-1H-indazol-3-yl}-N-(2-methylpyrimidin-4-yl)-6,7-dihydro-5H-cyclopenta[d]pyrimidin-4-amine]	
42	COc1cnccc1Nc1nc(-c2nn(Cc3c(F)cc(OCCO)cc3F)c3ccccc23)nc2c1CCC(C)(C)C2 [Example 2-6-26, 2-{3,5-difluoro-4-[(3-{4-[(3-methoxypyridin-4-yl)amino]-7,7-dimethyl-5,6,7,8-tetrahydroquin-azolin-2-yl}-1H-indazol-1-yl)methyl]phenoxy}ethanol]	
38	COCCOc1cc(F)c(Cn2nc(-c3nc4c(c(Nc5ccncc5Cl)n3)CNC4)c3ccccc32)c(F)c1 [Example 2-9-24, N-(3-chloropyridin-4-yl)-2-{1-[2,6-difluoro-4-(2-meth-oxyethoxy)benzyl]-1H-indazol-3-yl}-6,7-dihydro-5H-pyrrolo[3,4-d]pyrimidin-4-amine]	
20	COCCOc1cc(F)c(Cn2nc(-c3nc4c(c(Nc5ccncn5)n3)CNC4)c3ccccc32)c(F)c1 [Example 2-9-27, 2-{1-[2,6-difluoro-4-(2-methoxy-ethoxy)benzyl]-1H-indazol-3-yl}-N-(pyrimidin-4-yl)-6,7-dihydro-5H-pyrrolo[3,4-d]pyr-imidin-4-amine, salt with hydrochloric acid]	
14	Oc1cc(F)c(Cn2nc(-c3nc4c(c(Nc5ccncn5)n3)CCC4)c3ccccc32)c(F)c1 [Example 2-6-11, 3,5-difluoro-4-({3-[4-(pyrimidin-4-ylamino)-6,7-dihydro-5H-cyclopenta[d]pyrimidin-2-yl]-1H-indazol-1-yl}methyl)phenol]	
12	CCOc1cc(F)c(Cn2nc(-c3ncc(CCCSC)c(Nc4ccncc4)n3)c3ccccc32)c(F)c1 [Example 2-2-2, 2-[1-(4-ethoxy-2,6-difluorobenzyl)-1H-indazol-3-yl]-5-[3-(methylsulfanyl)propyl]-N-(pyridin-4-yl)pyrimidin-4-amine]	
11	CCOc1cc(F)c(Cn2nc(-c3nc(Nc4ccnc(NC(C)=O)c4)cc(C4CCOCC4)n3)c3ccccc32)c(F)c1 [Example 2-12-90, N-[4-({2-[1-(4-ethoxy-2,6-difluorobenzyl)-1H-indazol-3-yl]-6-(tetrahydro-2H-pyran-4-yl)pyrimidin-4-yl}amino)pyridin-2-yl]acetamide]	
10	COCCOc1cc(F)c(Cn2nc(-c3nc(CN4CCOCC4)cc(Nc4ccncc4Cl)n3)c3ccccc32)c(F)c1 [Example 2-12-40, N-(3-chloropyridin-4-yl)-2-{1-[2,6-difluoro-4-(2-methoxyethoxy)benzyl]-1H-indazol-3-yl}-6-(morpholin-4-ylmethyl)pyrimidin-4-amine]	
9.9	COCCOc1cc(F)c(Cn2nc(-c3nc4c(c(Nc5ccncc5OC)n3)CCCCC4)c3ccccc32)c(F)c1 [Example 2-12-70, 2-{1-[2,6-difluoro-4-(2-methoxyethoxy)benzyl]-1H-indazol-3-yl}-N-(3-methoxypyridin-4-yl)-6,7,8,9-tetrahydro-5H-cyclohepta[d]pyrimidin-4-amine]	
8.8	COCCOc1cc(F)c(Cn2nc(-c3nc(CN4CCOCC4)cc(Nc4ccncc4C)n3)c3ccccc32)c(F)c1 [Example 2-12-41, 2-{1-[2,6-difluoro-4-(2-methoxyethoxy)benzyl]-1H-indazol-3-yl}-N-(3-methylpyridin-4-yl)-6-(morpholin-4-ylmethyl)pyrimidin-4-amine]	IC50 [2]: 120 nM; IC50 (HeLa): 3500 nM
7.5	COCCOc1cc(F)c(Cn2nc(-c3ncc(C4CCNCC4)c(Nc4ccncc4Cl)n3)c3ccccc32)c(F)c1 [Example 2-17-9, N-(3-chloropyridin-4-yl)-2-{1-[2,6-difluoro-4-(2-methoxyethoxy)benzyl]-1H-indazol-3-yl}-5-(piperidin-4-yl)pyrimidin-4-amine]	
5	Cc1cnccc1Nc1nc(-c2nn(Cc3c(F)cc(OCCO)cc3F)c3ccccc23)nc2c1CCC2 [Example 2-4-8, 2-{3,5-difluoro-4-[(3-{4-[(3-methylpyridin-4-yl)amino]-6,7-dihydro-5H-cyclopenta[d]pyrimidin-2-yl}-1H-indazol-1-yl)methyl]phenoxy}ethanol]	IC50 [2]: 370 nM; IC50 (HeLa): 1800 nM
